{
  "source": "patent US6670343B1",
  "about": "“Drugs for periodontal disease” (Toray Industries, Inc., priority 1999, dated 2003)",
  "origin": "cited, not measured here",
  "details": "reported in J. Periodontology 63, 825-830 (1992)",
  "data": [
    {"smiles": "NCCCC(O)(P(=O)(O)O)P(=O)(O)O", "note": "[4-amino-1-hydroxybutylidene-1,1-bisphosphonic acid]", "values": [
      {"measurement": "effect on alveolar bone resorption", "result": "effectively suppresses alveolar bone resorption"},
      {"measurement": "effect on dental pocket formation and gingival inflammation", "result": "not effective"}
    ]}
  ]
}
